Results published in the NIST ThermoML archive (doi:10.1021/je4007019).

Assay: molar heat capacity at constant pressure; xn = mol fraction of the nth substance listed
Details: Liquid, Large sample (1 g) DSC

CCCC [butane] + C
molar heat capacity at constant pressure [J/K/mol]
Details | 118.15 K | 128.15 K | 138.15 K | 148.15 K | 158.15 K | 168.15 K | 178.15 K
5050 kPa, x2 = 0.95 | – | – | – | 62.44 | 64.49 | 67.9 | 73.38
5150 kPa, x2 = 0.6 | 76.47 | 76.37 | 77.25 | 77.85 | 78.21 | 78.34 | –
5150 kPa, x2 = 0.88 | 61.84 | 62.6 | 63.49 | 64.92 | 66.55 | 68.32 | –

C [methane] + CCC
molar heat capacity at constant pressure [J/K/mol]
Details | 108.15 K | 118.15 K | 128.15 K | 143.15 K | 153.15 K | 163.15 K
4700 kPa, x1 = 0.81 | 59.46 | 59.69 | 60.46 | 61.47 | 62.96 | 63.63
5200 kPa, x1 = 0.82 | 59.21 | 59.52 | 60.05 | 61.36 | 62.9 | 63.97
6000 kPa, x1 = 0.81 | 57.53 | 58.6 | 59.05 | 60.8 | 62.56 | 63.41
